Measured values as given in patent EP4664463A1, “COMPUTER-IMPLEMENTED METHOD FOR OLFACTORY PROPERTY PREDICTION” (Givaudan SA, priority 2024, dated 2025).
Entries after “also recorded” stand apart in the source; their conditions may differ. Like-named read-outs stand apart in the source and are kept apart here.

Experiments:
OR10J5 = target: T1, OR10J5 (Homo sapiens, UniProt Q8NHC4); test: OR10J5 (SEQ ID NO: 86) dose-response of isomers, EC20% relative to positive control; assay type: cell-based; details: 20 % of positive control (100µM Mahonial); OR10J5 with SEQ ID NO: 86
T1 construct: expressed in transfected cells; host or cells: HEK293T cells stably expressing human RTP1S (V227I) and RTP2 (L220R)
T1 sequence (Q8NHC4 with tags, fused parts or gaps): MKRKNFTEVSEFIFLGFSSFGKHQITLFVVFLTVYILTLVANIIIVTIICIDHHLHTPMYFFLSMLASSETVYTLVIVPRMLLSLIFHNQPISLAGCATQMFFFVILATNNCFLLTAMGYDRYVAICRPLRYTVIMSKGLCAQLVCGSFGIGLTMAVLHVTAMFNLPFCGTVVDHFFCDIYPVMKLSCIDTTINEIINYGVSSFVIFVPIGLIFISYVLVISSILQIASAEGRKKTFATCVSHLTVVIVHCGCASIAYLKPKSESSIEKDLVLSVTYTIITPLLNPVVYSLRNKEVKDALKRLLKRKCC
From the text: Once a strong ligand is known for a given OR and the concentration of that ligand for maximal OR activation, this ligand (tested at its maximal inducing concentration) can be introduced as a positive control into the experiment, and fold-luciferase can be reported as % activation of the positive control according to the following formula: % activation = (Fold luciferase activation test compound−1)/(Fold luciferase activation positive control−1) × 100 [formula]
Activation of OR10J5 with the C-terminal domain of SEQ ID NO: 86 by (S,E)-10-hydroxy-4,8-dimethyldec-4-enal or (R,E)-10-hydroxy-4,8-dimethyldec-4-enal was measured in a dose-response analysis.
Potency of the two tested OR10J5 ligands is expressed as the EC20% value, which is the concentration that leads to a 20 % increase of the luciferase activity relative to the positive control (100µM, Mahonial; (4E)-9-hydroxy-5,9-dimethyl-4-Decenal). […] Because of the difference in EC20%, a much lower concentration of the (S,E)-isomer is needed to activate the receptor compared to the concentration needed of the (R,E)-isomer. […] This example further illustrates the usefulness of the improved assay to determine the most odor-active isomers.

OR14J1 = target: T2, OR14J1 (Homo sapiens, UniProt Q9UGF5); test: Activation of modified OR14J1 (SEQ ID NO: 221), library hit and dose-response; assay type: cell-based; details: SEQ ID 221
T2 construct: expressed in transfected cells; host or cells: HEK293T stably expressing human RTP1S(V227I) and RTP2(L220R) (general method)
Method: Parallel transfection experiments were conducted with all these plasmids (n = 408) and cells expressing the different OR were stimulated with one given ligand at a time, tested at the maximal, clearly non-cytotoxic concentration. In total 26 different ligands were tested on the full library of class II receptors.
Table 16. Ligands tested on the full library of OR and cognate receptors identified for these ligands

OR4S2 [1] = target: T3, OR4S2 (Homo sapiens, UniProt Q8NH73); test: cell-based; assay type: cell-based
T3 construct: expressed in transfected cells; host or cells: HEK293T stably expressing human RTP1S(V227I) and RTP2(L220R)
From the text: (§1) To create an expression plasmid, an OR coding sequence fused at the end of TM7 to the desired C-terminus sequence was synthesized by a DNA synthesis service provider (BioCat GmbH, Germany) and inserted into pcDNA3.1(+) (Invitrogen, MA, USA) downstream of the CMV promoter sequence (SEQ ID NO: 82) using BamHI and Notl restriction sites. All the synthetic OR nucleotide sequences described below in Examples 1-15 further contained at their N-terminus a nucleotide sequence encoding a signal peptide (mmLucy-FLAG-rho, SeQ ID NOs: 80, 81) and at the C-terminus the bgh terminator sequence (SEQ ID NO: 83). All the OR expression plasmids also contain a Kozak sequence (GCCACC) between the BamHI restriction site and the start codon of the signal peptide. These plasmids thus contain a constitutively expressed OR gene.

OR4S2 [2] = target: T4, OR4S2 (Homo sapiens, UniProt Q8NH73, A290K); test: cell-based; assay type: cell-based
T4 construct: expressed in transfected cells; host or cells: HEK293T stably expressing human RTP1S(V227I) and RTP2(L220R)
From the text: as §1

OR4S2 [3] = test: cell-based; assay type: cell-based, human
From the text: as §1

OR5A2 [4] = target: T5, OR5A2 (Homo sapiens, UniProt Q8NGI9); test: Luciferase dose-response, wild-type vs changed C-terminus (SEQ ID NO: 86); assay type: cell-based
T5 construct: expressed in transfected cells; host or cells: HEK293T cells with stably integrated human RTP1S (V227I) and RTP2 (L220R)
T5 sequence (Q8NGI9 1-324): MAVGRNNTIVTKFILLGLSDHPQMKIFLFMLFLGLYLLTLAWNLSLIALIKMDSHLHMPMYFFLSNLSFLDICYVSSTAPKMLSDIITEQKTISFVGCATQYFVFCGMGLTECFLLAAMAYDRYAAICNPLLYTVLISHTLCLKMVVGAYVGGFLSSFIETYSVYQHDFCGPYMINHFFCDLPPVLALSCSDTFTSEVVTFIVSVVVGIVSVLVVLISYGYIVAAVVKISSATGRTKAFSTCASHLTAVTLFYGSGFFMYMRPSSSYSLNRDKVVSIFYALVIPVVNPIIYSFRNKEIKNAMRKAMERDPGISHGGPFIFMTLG
From the text: as §1

OR5A2 [5] = target: T6, OR5A2 (Homo sapiens, UniProt Q8NGI9); test: as above; assay type: cell-based; remark: listed apart in the source
T6 construct: expressed in transfected cells; host or cells: HEK293T cells with stably integrated human RTP1S (V227I) and RTP2 (L220R)
T6 sequence (Q8NGI9 with tags, fused parts or gaps): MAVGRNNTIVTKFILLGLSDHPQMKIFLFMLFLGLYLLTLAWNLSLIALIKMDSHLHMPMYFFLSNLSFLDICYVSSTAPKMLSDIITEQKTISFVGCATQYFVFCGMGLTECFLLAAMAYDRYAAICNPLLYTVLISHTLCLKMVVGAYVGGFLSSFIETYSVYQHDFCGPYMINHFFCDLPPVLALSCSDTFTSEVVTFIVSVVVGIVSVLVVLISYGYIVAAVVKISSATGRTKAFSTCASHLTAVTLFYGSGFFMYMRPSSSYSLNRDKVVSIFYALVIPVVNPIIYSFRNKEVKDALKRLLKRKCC
From the text: as §1

OR5A2 [6] = test: as above; assay type: cell-based, human
From the text: as §1

OR1C1 [7] = target: T7, OR1C1 (Homo sapiens, UniProt Q15619); test: cell-based; assay type: cell-based
T7 construct: expressed in transfected cells; host or cells: HEK293T cells stably expressing human RTP1S (V227I) and RTP2 (L220R)
From the text: as §1
T7 sequence (Q15619 with tags, fused parts or gaps): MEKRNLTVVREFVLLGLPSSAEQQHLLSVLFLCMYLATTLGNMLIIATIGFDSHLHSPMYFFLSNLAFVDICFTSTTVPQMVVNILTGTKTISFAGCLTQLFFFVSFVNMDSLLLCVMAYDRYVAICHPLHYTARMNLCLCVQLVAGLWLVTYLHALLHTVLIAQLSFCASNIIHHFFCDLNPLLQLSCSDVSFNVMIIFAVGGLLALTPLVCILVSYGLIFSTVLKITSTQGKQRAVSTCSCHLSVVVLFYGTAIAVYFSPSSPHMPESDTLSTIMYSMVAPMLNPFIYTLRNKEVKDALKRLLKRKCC

OR1C1 [8] = target: T8, OR1C1 (Homo sapiens, UniProt Q15619); test: cell-based; assay type: cell-based; remark: listed apart in the source
T8 construct: expressed in transfected cells; host or cells: HEK293T cells stably expressing human RTP1S (V227I) and RTP2 (L220R)
From the text: as §1
T8 sequence (Q15619 whole entry): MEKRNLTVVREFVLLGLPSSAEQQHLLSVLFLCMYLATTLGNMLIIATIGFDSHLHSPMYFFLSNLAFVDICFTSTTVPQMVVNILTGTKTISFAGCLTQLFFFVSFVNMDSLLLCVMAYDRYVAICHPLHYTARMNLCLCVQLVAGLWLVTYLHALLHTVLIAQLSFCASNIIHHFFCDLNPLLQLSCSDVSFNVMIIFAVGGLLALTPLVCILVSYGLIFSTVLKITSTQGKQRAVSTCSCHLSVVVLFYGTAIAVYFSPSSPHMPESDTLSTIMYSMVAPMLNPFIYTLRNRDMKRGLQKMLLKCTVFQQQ

OR1C1 [9] = test: cell-based; assay type: cell-based, human
From the text: as §1

OR52E8 [10] = target: T9, OR52E8 (Homo sapiens, UniProt Q6IFG1); test: cell-based; assay type: cell-based; details: read-out: Potency EC50
T9 construct: expressed in transfected cells; host or cells: HEK293T stably expressing human RTP1S(V227I) and RTP2(L220R)
From the text: as §1

OR52E8 [11] = test: cell-based; assay type: cell-based, human
From the text: as §1

[12] = wild-type, read-out: Potency EC50
[13] = changed C-term SEQ ID NO: 86, read-out: Potency EC50

T2 sequence (Q9UGF5 with tags, fused parts or gaps): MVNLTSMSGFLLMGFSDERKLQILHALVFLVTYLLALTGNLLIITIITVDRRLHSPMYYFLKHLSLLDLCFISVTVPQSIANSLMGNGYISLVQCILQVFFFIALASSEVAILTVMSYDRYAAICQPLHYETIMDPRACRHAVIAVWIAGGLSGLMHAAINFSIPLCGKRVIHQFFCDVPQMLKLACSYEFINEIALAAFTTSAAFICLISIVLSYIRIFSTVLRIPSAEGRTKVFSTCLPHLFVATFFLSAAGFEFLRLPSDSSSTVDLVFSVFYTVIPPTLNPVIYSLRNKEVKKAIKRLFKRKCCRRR
T4 sequence (Q8NH73 with tags, fused parts or gaps A290K): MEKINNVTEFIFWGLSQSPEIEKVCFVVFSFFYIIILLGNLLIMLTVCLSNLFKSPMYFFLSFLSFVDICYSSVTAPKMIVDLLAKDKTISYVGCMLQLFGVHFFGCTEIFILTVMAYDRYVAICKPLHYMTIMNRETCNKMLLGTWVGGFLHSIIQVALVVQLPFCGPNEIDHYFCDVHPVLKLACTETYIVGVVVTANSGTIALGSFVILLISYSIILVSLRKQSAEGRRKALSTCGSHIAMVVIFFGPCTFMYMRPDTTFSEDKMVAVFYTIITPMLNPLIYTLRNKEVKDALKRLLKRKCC

C/C(=C\CC[C@H](C)CCO)CCC=O [(S,E)-10-hydroxy-4,8-dimethyldec-4-enal]
EC20% (OR10J5): 10.1 µM

C[C@H]1CCC2(O)C(C)(C)C3CCC2(C)C1C3 (stereo partly drawn) [Patchoulol, (4S)-4,8a,9,9-tetramethyloctahydro-1,6-methanonaphthalen-1(2H)-ol]
activation of OR14J1 (OR14J1): activate OR14J1; also recorded: strong induction

c1ccc2scnc2c1 [Benzothiazole]
Detection threshold; concentration for 2-fold induction (OR4S2 [1]): 29.4 µM
EC50 (OR4S2 [1]; [12]): 137 µM
Detection threshold; concentration for 2-fold induction (OR4S2 [2]): 12.5 µM
EC50 (OR4S2 [2]; [13]): 104 µM
Comments on efficacy (OR4S2 [3]): 2-fold lower maximal induction for wild-type
Fold-improvement potency (OR4S2 [3]): 1.3
Fold-improvement threshold (OR4S2 [3]): 2.4

CC1COCc2cc3c(cc21)C(C)(C)C(C)C3(C)C (centres unmarked) [Galaxolide]
EC50 (OR5A2 [4]; Potency EC50, wild-type): > 31 µM
Detection threshold; concentration for 2-fold induction (OR5A2 [4]; wild-type): n.i. (>> 31) µM
activation of the wild-type receptor (OR5A2 [4]; wild-type OR5A2): No activation
concentration at which activation occurs (OR5A2 [5]; OR5A2 with SEQ ID NO: 86): < 0.01 µM
EC50 (OR5A2 [5]; Potency EC50, changed C-term SEQ ID NO: 86): 0.1 µM
Detection threshold; concentration for 2-fold induction (OR5A2 [5]; changed C-term. SEQ ID NO: 86): 0.0016 µM
Comments on efficacy (OR5A2 [6]): No induction wild-type
Fold-improvement potency (OR5A2 [6]): >300
Fold-improvement threshold (OR5A2 [6]): >20000

C=CC(C)(O)CCC=C(C)C (centres unmarked) [Linalool]
Detection threshold; concentration for 2-fold induction (OR1C1 [7]): 16.2 µM
EC50 (OR1C1 [7]; [13]): 202 µM
Detection threshold; concentration for 2-fold induction (OR1C1 [8]): 34.7 µM
EC50 (OR1C1 [8]; [12]): 379 µM
Fold-improvement potency (OR1C1 [9]): 1.9
Fold-improvement threshold (OR1C1 [9]): 2.1

CCCC(C)(O)CC(=O)O (centres unmarked) [3-Methyl-3-Hydroxy-Hexanoic acid]
EC50 (OR52E8 [10]; changed C-term SEQ ID NO: 86): 69 µM
EC50 (OR52E8 [10]; wild-type): > 316 µM
Comments on efficacy (OR52E8 [11]): No induction wild-type
Fold-improvement potency (OR52E8 [11]): >>5
Fold-improvement threshold (OR52E8 [11]): >>5
